# Assay results from PubChem BioAssay AID489040 (Sanford-Burnham Center for Chemical Genomics, 2010).
# The source made the active and inactive calls.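 The calls were made as follows: active = mean half-maximal activating concentration from the dose-response fit at or below a set limit; inactive = the rest.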
# Target: CHO-XBP1 luciferase reporter, IRE1-XBP1 UPR activation
# Assay: activators of IRE1-XBP1 UPR arm, dose response, counter-screen for apoptotic UPR arm activators, CHO-XBP1 cells, luminescence (AID 489040);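 also: reporter read after six hours of compound exposure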
row,Compound,EC50
1,CCOc1ccc2nc(SC3CC(=O)N(c4ccc(C)cc4)C3=O)sc2c1 (stereo not given),> 80 µM (inactive)
2,N=c1c(-c2nc3ccccc3[nH]2)cc(C(=O)c2ccco2)nn1-c1ccccc1,> 80 µM (inactive)
3,Cc1ccc(Cc2cnc(NC(=O)/C(C#N)=C/c3ccc(-c4cccc([N+](=O)[O-])c4)o3)s2)cc1,9.32 µM
4,O=C(Nc1nc(-c2ccc(F)c(F)c2)cs1)Nc1ccc(F)cc1F,> 80 µM (inactive)
5,CN(C(=O)CSc1cc(C(=O)c2nccn2C)c2ccccc2n1)c1ccccc1,> 80 µM (inactive)
6,COc1cc(/C=C2\C(=O)ON=C2c2ccc(Cl)cc2)ccc1O,> 80 µM (inactive)
7,Oc1ccc(-c2cn3ccccc3n2)cc1O,> 80 µM (inactive)
8,COc1ccc(OC)c(/C=C/C(=O)N2C(=O)c3cccc(N)c3C2=O)c1,> 80 µM (inactive)
9,Cc1cc(C)c(C(CC(=O)c2cccs2)C(C#N)C#N)c(C)c1 (stereo not given),> 80 µM (inactive)
10,CCOC(=O)C(=Cc1ccc(-n2ccnc2)cc1)C(=O)OCC,> 80 µM (inactive)
11,O=C(/C=C/c1ccco1)NC(=S)Nc1ccc(O)c(-c2nc3ccccc3s2)c1,9.84 µM
12,CC(C)(C)C1=CC(=O)C(=O)C(C(C)(C)C)=C1,> 80 µM (inactive)
13,CCOC(=O)C(=Cc1ccc(F)cc1)C(=O)OCC,> 80 µM (inactive)
14,CN1CSC(=S)N(C)C1,> 80 µM (inactive)
15,COc1cc(/C=C(/C#N)c2nc3ccccc3[nH]2)ccc1OCC(=O)Nc1ccccc1C(C)C,> 80 µM (inactive)
16,O=C(/C=C/Sc1ccc(C(F)(F)F)cn1)c1ccccc1,> 80 µM (inactive)
17,O=C(N/N=C(\c1ccccc1)c1cccnc1)c1cccc(F)c1,> 80 µM (inactive)
18,O=C(/C=C/c1cccnc1)c1ccc(NC(=O)c2cccc(Br)c2)cc1,> 80 µM (inactive)
19,O=C(c1ccc(Br)cc1)C(CN1CCOCC1)c1ccccc1 (stereo not given),> 80 µM (inactive)
20,C=CCSC(=C(C#N)C#N)c1cc2c([nH]1)CCCC2,> 80 µM (inactive)
21,Cc1ccc2oc(Nc3nc(-c4ccccc4)cc(=O)[nH]3)nc2c1,> 80 µM (inactive)
22,CN(C)S(=O)(=O)c1cccc(NC(=O)CSc2cccc3cccnc23)c1,> 80 µM (inactive)
23,C/C(CC(C)(C)C1CCCCC1)=N\NC(N)=S,inactive
24,Cn1c(/C=C/c2ccc([N+](=O)[O-])o2)nc2ccccc2c1=O,> 80 µM (inactive)
25,CCOC(=O)C1=C(Cc2ccc(Cl)cc2)C(=O)c2ccccc2C1=O,> 80 µM (inactive)

row,Compound,EC50
1,Cc1ccc(C(=O)/C=C/C(=O)c2ccc(C)cc2)cc1,> 80 µM (inactive)
2,CCCCn1c(/C=N/Nc2nc3ccccc3[nH]2)nc2ccccc21,> 80 µM (inactive)
3,Cc1ccc(Cc2cnc(NC(=O)/C(C#N)=C/c3ccc(-c4ccc([N+](=O)[O-])cc4)o3)s2)cc1,inactive
4,Cc1ccc(-c2nn3c(C)nnc3s2)cc1NC(=O)c1ccc(-c2ccc(Cl)cc2Cl)o1,15.9 µM
5,Oc1c(C(c2ccccn2)N2CCC(Cc3ccccc3)CC2)cc(Cl)c2cccnc12 (stereo not given),> 80 µM (inactive)
6,CNC[C@@H](Cc1ccccc1)NC[C@@H](CC1CCCCC1)NCCCc1ccccc1,> 80 µM (inactive)
7,Cc1c(C#N)c(NC(=O)CCl)n(Cc2ccc(F)cc2)c1C,> 80 µM (inactive)
8,O=C(NCCc1ccccc1)c1coc(=O)c(Br)c1,> 80 µM (inactive)
9,C=CCN1C(=O)/C(=C/c2ccc3c(c2)CCCN3CCC)C(=O)NC1=S,> 80 µM (inactive)
10,CC(=O)Oc1ccc(OC(C)=O)c(SCCCCCN2CCOCC2)c1,> 80 µM (inactive)
11,CCCCCCCCCn1c2c(c(=N)c3c1CCC3)CCCC2,inactive
12,CC1=NOC(=O)/C1=C\c1ccc(-c2ccc(Cl)cc2Cl)o1,> 80 µM (inactive)
13,COc1cc(/C=C(/C(=O)c2cccs2)c2nc3ccccc3[nH]2)cc(OC)c1O,> 80 µM (inactive)
14,Oc1ccc(/C=N/N2CCCCC2)cc1O,> 80 µM (inactive)
15,Oc1c(N=Nc2ccccn2)ccc2ccccc12,> 80 µM (inactive)
16,Cc1ccc(S(=O)(=O)N(C(=O)c2ccncc2)c2ccc(OC(=O)c3ccncc3)c3ccccc23)c(C)c1,> 80 µM (inactive)
17,CCOc1cc(/C=N/Nc2cc(C)nc(-n3nc(C)cc3C)n2)ccc1O,> 80 µM (inactive)
18,O=C(N/N=C/c1ccccn1)c1sc2ccccc2c1Cl,> 80 µM (inactive)
19,Oc1c(C(c2ccccc2Cl)N2CCCC2)ccc2cccnc12 (stereo not given),> 80 µM (inactive)
20,COc1cccc(N=Cc2c(O)c3ccccc3oc2=O)c1,> 80 µM (inactive)
21,COc1cc(/C=C/C(=O)N2C(=O)c3cccc(N)c3C2=O)cc(OC)c1OC,> 80 µM (inactive)
22,CCNc1ccccc1CP(=O)(c1ccccc1)c1ccccc1O (stereo not given),> 80 µM (inactive)
23,CCOC(=O)CSc1cccc2cccnc12,> 80 µM (inactive)
24,Cc1cccc(Cn2cc(/C=C/[N+](=O)[O-])c3ccccc32)c1,> 80 µM (inactive)
25,Cc1cccc(Nc2nc(-c3ccccn3)cs2)n1,> 80 µM (inactive)

row,Compound,EC50
1,O=C(NC1CCCC1)C(c1ccc(F)cc1)N(Cc1ccc(F)cc1)C(=O)CCl (stereo not given),> 80 µM (inactive)
2,O=C(Nc1ccc(NC(=O)c2sc3ccccc3c2Cl)cc1Cl)c1ccco1,inactive
3,COC(=O)[C@@H]1[C@@H](C#N)C2(c3ccccc3-c3ccccc32)N(c2ccc(Cl)cc2)N1C#N,> 80 µM (inactive)
4,O=C(Nc1ccc(S(=O)(=O)N2CCCC2)cc1)c1ccc([N+](=O)[O-])o1,> 80 µM (inactive)
5,O=C(/C=C/Sc1ccccc1)c1ccc(Cl)cc1,> 80 µM (inactive)
6,O=C1/C(=C/c2ccccc2[N+](=O)[O-])COc2ccccc21,> 80 µM (inactive)
7,Cc1cc(C(=O)CCl)c(C)n1-c1cccc([N+](=O)[O-])c1,> 80 µM (inactive)
8,Oc1[nH]c2ccc(Br)cc2c1N=NC(=S)N1CCOCC1,> 80 µM (inactive)
9,O=C1NC(=O)N(c2ccccc2)C(=O)/C1=C\C=C\c1ccccc1,> 80 µM (inactive)
10,Cn1c(SCC(=O)NCC2CCCO2)ncc(C(=O)Nc2ccc(Cl)cc2)c1=O (stereo not given),> 80 µM (inactive)
11,Cn1nnnc1Sc1ncnc2scc(-c3ccc([N+](=O)[O-])cc3)c12,> 80 µM (inactive)
12,C=CCN=c1scc(-c2ccco2)n1/N=C/c1ccc(O)c(O)c1O,> 80 µM (inactive)
13,CC(=O)c1ccc(NC(=O)COC(=O)c2ccccc2N=Nc2ccc(N(C)C)cc2)cc1,4.12 µM
14,COc1cccc(N=Nc2ccc(O)c3ncccc23)c1,> 80 µM (inactive)
15,COc1ccc(N=Cc2c(O)c3ccccc3oc2=O)cc1,11.6 µM
16,O=C(N/N=C/c1ccccn1)c1cc(-c2ccc(Br)cc2)nc2ccccc12,> 80 µM (inactive)
17,CCCN1C/C(=C/c2ccc3c(c2)OCO3)C(=O)/C(=C/c2ccc3c(c2)OCO3)C1,> 80 µM (inactive)
18,COc1ccc(C(=O)/C=C2/C(=O)Nc3ccccc32)c(OC)c1,> 80 µM (inactive)
19,Cc1ccc(-c2nc(NC(=O)c3nn(C)cc3[N+](=O)[O-])sc2C)cc1,> 80 µM (inactive)
20,CCCN(CCC)C(=O)c1cc([N+](=O)[O-])cc2c1-c1ccc([N+](=O)[O-])cc1C2=C(C#N)C#N,> 80 µM (inactive)
21,OCCNc1nc(Nc2ccc(Cl)c(Cl)c2)nc2ccccc12,> 80 µM (inactive)
22,C=C(C(=O)c1ccccc1)C(C(=C)C(=O)c1ccccc1)c1ccc(OC)cc1,> 80 µM (inactive)
23,COc1ccccc1NC(=O)c1cnc(SCC(=O)NCC2CCCO2)n(C)c1=O (stereo not given),> 80 µM (inactive)
24,CC1=C(CC/C(C)=N/NC(N)=S)C(C)(C)CCC1,inactive
25,Cc1cc(N/N=C/c2ccccc2[N+](=O)[O-])nc(-n2nc(C)cc2C)n1,> 80 µM (inactive)

row,Compound,EC50
1,O=C(CCl)Nc1cccc(S(=O)(=O)NC2=NCCCCC2)c1,> 80 µM (inactive)
2,CC(=O)/C(=N\Nc1ccc(Cl)cc1Cl)Sc1cccc2cccnc12,> 80 µM (inactive)
3,COc1ccc2cc(C)c3nnc(SCC(=O)Nc4nc(-c5ccc(F)cc5)cs4)n3c2c1,inactive
4,Cc1sc(NC(=O)c2cc(-c3ccc(Cl)cc3)nc3ccccc23)c(C(N)=O)c1C,15.2 µM
5,N#C/C(=C\c1ccc(OCc2ccccc2)cc1)C(=O)Nc1nc2c(s1)CCN(Cc1ccccc1)C2,> 80 µM (inactive)
6,COc1ccc(N=c2oc3c(OC)cccc3cc2C(=O)NCc2ccco2)cc1OC,> 80 µM (inactive)
7,Cc1cccc(-n2ncc(Cl)c(Cl)c2=O)c1,> 80 µM (inactive)
8,Cc1ccc(S(=O)(=O)Nc2cccc3cccnc23)c([N+](=O)[O-])c1,> 80 µM (inactive)
9,O=c1cc(C(Cl)(Cl)Cl)oc2c1ccc1ccccc12,inactive
10,Oc1ccc(-c2csc(Nc3ccccn3)n2)cc1O,> 80 µM (inactive)
11,COc1cccc2sc(N3CCN(c4nc5ccccc5s4)CC3)nc12,18.7 µM
12,CC(C)N1CSC(=S)N(Cc2ccccc2)C1,> 80 µM (inactive)
13,O=C(CSc1ccc2ccccc2c1)NCCc1ccc(O)c(O)c1,> 80 µM (inactive)
14,COc1ccc2c(c1)CCc1c(C(=O)Nc3cc(C)n(Cc4ccc(Cl)cc4)n3)noc1-2,> 80 µM (inactive)
15,Cc1ccc(-c2nn(-c3ccccc3)cc2C=C2C(=O)CC(C)(C)CC2=O)cc1,> 80 µM (inactive)
16,Cc1nn(-c2ccccc2)c(C)c1/C=N/NC(=O)CSc1nc2ccccc2c(=O)n1-c1ccc(Br)cc1,9.09 µM
17,CCc1ccc(-n2c(SCC(=O)c3ccc4c(c3)NC(=O)CO4)nc3ccccc3c2=O)cc1,10.5 µM
18,COc1ccc(OC)c(Nc2nc(-c3ccc(O)c(O)c3)cs2)c1,> 80 µM (inactive)
19,O=C(c1ccc(Cl)cc1)C(CN1CCCC1)c1ccccc1 (stereo not given),> 80 µM (inactive)
20,Cc1ccc(Sc2nc(-c3ccccc3)nnc2C(F)(F)F)cc1,> 80 µM (inactive)
21,C=CCn1nc([N+](=O)[O-])nc1Sc1cccc2cccnc12,> 80 µM (inactive)
22,Oc1c(Cl)cc(CN2CCCCC2)c2cccnc12,> 80 µM (inactive)
23,C/C(=N\NC(=O)COc1ccccc1-c1ccccc1)c1ccccn1,> 80 µM (inactive)
24,COc1ccc(-c2csc3nc(-c4ccc(C)cc4)oc(=O)c23)cc1OC,> 80 µM (inactive)
25,CCOc1cc(/C=C2/C(=N)N3C=CSC3=NC2=O)ccc1OCCCOc1ccccc1C,20 µM
